Test results from patent publication US6350751B1, “Therapeutic agents” (Pfizer Inc., priority 1999, dated 2002).

Legend:
[1] = investigation of hydrate and polymorph formation of salts; type: physicochemical; settings: for formation of crystalline hydrates: under a range of conditions
Text: Hydrated salts can provide particular issues in processing, especially during for example the milling and/or drying stages. It has been disclosed that the tendency of organic molecules to hydrate can be predicted from their molecular structure, “Hydration in organic crystals: prediction from molecular structure”, Desiraju, Gautam R. Sch. Chem., Univ. Hyderabad, Hyderabad, 500 134, India. J. Chem. Soc., Chem. Commun. (1991), Issue 6, 426-8. CODEN: JCCCAT; ISSN: 0022-4936. (EN) CAN 114:237859. […] Several of the salts investigated form hydrates.
(§1) The problem of selecting a pharmaceutically acceptable salt form for 3-ethyl-5-[5-(4-ethylpiperazin-1-ylsulphonyl)-2-(2-methoxyethoxy) pyridin-3-yl]-2-(pyridin-2-yl)methyl-2,6-dihydro-7H-pyrazolo[4,3-d]pyrimidin-7-one has been solved by the surprising finding that the anhydrous para-toluene sulphonate salt of formula (I) meets the above criteria for a pharmaceutically acceptable salt. […] This is particularly surprising as initial predictions would indicate that the toslyate salt would form a hydrate, especially given the fact that the besylate salt and other salts investigated hydrated as predicted.
4-{6-Ethoxy-5-[3-ethyl-6,7-dihydro-7-oxo-2-(2-pyridylmethyl)-2H-pyrazolo[4,3-d]pyrimidin-5-yl]-3-pyridylsulfonyl}1-ethylpiperazine (100 g, 0.16 mol) was heated in 2-butanone/6.0% water (600 mL) to 50° C. yielding a pale yellow solution. The reaction mixture was heated to azetropically distil of 160 ml of solvent to remove water. The distilled solution was warmed to 60° C. and the acid solution of p-toluenesulfonic acid monohydrate (31.11 g, 0.16 mol) dissolved in 2-butanone (140 mL) was added over an hour. During the addition of the acid slow crystallisation was observed. The reaction mixture was slowly cooled from 60° C. to 0-5° C. over three hours, and stirred for a further hour, then filtered off the solid, washed with 2-butanone (200 mL) and dried under vacuum at 50° C. to afford the title compound (116 g, 93.7%) as a white solid. Mpt 240° C. (DMSOd6): 1.20 (6H, m), 2.23 (3H, st), 2.75 (2H, m), 2.97 (2H, q), 3.18 (4H, m), 3.35 (3H, s), 3.55 (2H, m), 3.68 (2H, m), 3.83 (2H, m), 4.59 (2H, m), 5.70 (2H, s), 7.08 (2H, d), 7.20 (1H, d), 7.34 (1H, m), 7.43 (2H, d), 7.80 (1H, m), 8.35 (1H, d), 8.70 (1H, d), 8.74 (1H, d). […] Mpt quoted +/−5° C. preferably +/−2° C. […] Additional experiments have shown that on re-slurrying in a mixture of methyl ethyl ketone and water these further polymorphs can be converted to the compound of Example 1.

[2] = stability of the salt (dosage form, drying and milling, drug substance); type: physicochemical
Text: as §1

| Compound | number of anhydrous polymorphs [1] | formation of crystalline hydrates [1] | further polymorphs detected via differential scanning calorimetry (DSC) ([1]; under certain conditions, convertible to Example 1 form by re-slurrying in methyl ethyl ketone and water) | drug substance stability profile [2] | physical dosage form stability [2] | stability during drying and milling processes [2] |
| --- | --- | --- | --- | --- | --- | --- |
| CCc1c2nc(-c3cc(S(=O)(=O)N4CCN(CC)CC4)cnc3OCCOC)[nH]c(=O)c2nn1Cc1ccccn1.O=S(=O)(O)c1ccccc1 [besylate salt, besylate salt of 3-ethyl-5-[5-(4-ethylpiperazin-1-ylsulphonyl)-2-(2-methoxyethoxy)pyridin-3-yl]-2-(pyridin-2-yl)methyl-2,6-dihydro-7H-pyrazolo [4,3-d]pyrimidin-7-one, reference compound] | at least 5 | a hydrated polymorph of the besylate salt is indeed formed | – | – | – | – |
| CCc1c2nc(-c3cc(S(=O)(=O)N4CCN(CC)CC4)cnc3OCCOC)[nH]c(=O)c2nn1Cc1ccccn1 [Example 1] | – | does not appear to form crystalline hydrates | at least two further polymorphs | desirable drug substance stability profile | good physical dosage form stability | demonstrates stability during drying and milling processes |
